Test results reported in US20020169101A1, “Treatment of sexual dysfunction” (priority 1999, published 2002).
“Also recorded” adds a separate entry of the source.

Key:
[1] = test system: penile intracavernosal pressure; experiment: Penile intracavernosal pressure in the conscious male rat (telemetry); type: in vivo; details: Compound 1 10 mg/kg sc, one hour after, Compound 3 15 mg/kg sc, 45 minutes after, conscious male rat (FIGS. 24, 25)
Experimental: In addition to treating women with FSD, bombesin antagonists will be useful in treating male erectile dysfunction (MED. Both the non-selective BB1/2 antagonists (Compound 1; 10 mg/kg sc) and the selective BB1 receptor antagonist (Compound 3; 15 mg/kg sc) is pro-erectile in a conscious rat model of penile erection (FIGS. 24 and 25). Erectile responses were recorded by measuring intracavemosal pressure using surgically implanted telemetric device. The specific details the surgical procedures, data acquisition and analysis can be found in detail in Bernabe 1999.
Compound 1 and compound 3 were dissolved in 50% β-cyclodextrin in saline. They were administered at a dose of […] subcutaneously (sc). […] These increases equate to penile erection. Both Compounds 1 and 3 induced a number of erections in a similar manner to those observed with apomorphine or melanotan-II—both of which are clinically proven agents that are effective in the treatment of MED. Moreover the amplitude of the increases observed were similar to those observed with apomorphine or melanotan-II. The mechanism of action is thought to be similar to the effects on female genital flow ie CNS potentiation of the descending neuronal pathways that control penile erection.

[2] = test system: female genital blood flow; experiment: Female genital blood flow in the anaesthetised rabbit model of sexual arousal (pelvic nerve stimulation); type: in vivo; details: 15 mg/kg sc; for basal genital blood flow in the absence of PNS / pelvic-nerve stimulated (PNS) increases in genital (vaginal and clitoral) blood flow: anaesthetised female rabbit (FIGS. 22, 23)
Experimental: Female New Zealand rabbits (˜2.5kg) were pre-medicated with a combination of Medetomidine (Domitor®) 0.5 ml/kg i.m., and Ketamine (Vetalar®) 0.25 ml/kg im. whilst maintaining oxygen intake via a face mask. The rabbits were tracheotomised using a PortexTM uncuffed endotracheal tube 3 ID., connected to ventilator and maintained at a ventilation rate of 30-40 breaths per minute, with an approximate tidal volume of 18-20 ml, and a maximum airway pressure of 10 cm H2O. Anaesthesia was then switched to Isoflurane and ventilation continued with O2 at 21/min. The right marginal ear vein was cannulated using a 23G or 24G catheter, and Lactated Ringer solution perfused at 0.5 ml/min. The rabbit was maintained at 3% Isoflurane during invasive surgery, dropping to 2% for maintenance anaesthesia.
The left groin area of the rabbit was shaved and a vertical incision was made approximately 5 cm in length along the thigh. The femoral vein and artery were exposed, isolated and then cannulated with a PVC catheter (17G) for the infusion of drugs and compounds. Cannulation was repeated for the femoral artery, inserting the catheter to a depth of 10 cm to ensure that the catheter reached the abdominal aorta. This arterial catheter was linked to a Gould system to record blood pressure. Samples for blood gas analysis were also taken via the arterial catheter. Systolic and diastolic pressures were measured, and the mean arterial pressure calculated using the formula (diastolic x2 +systolic)÷3. Heart rate was measured via the pulse oxymeter and Po-ne-mah data acquisition software system (Ponemah Physiology Platform, Gould Instrument Systems Inc). A ventral midline incision was made into the abdominal cavity. The incision was about 5 cm in length just above the pubis. The fat and muscle was bluntly dissected away to reveal the hypogastric nerve which runs down the body cavity. It was essential to keep close to the side curve of the pubis wall in order to avoid damaging the femoral vein and artery which lie above the pubis. The sciatic and pelvic nerves lie deeper and were located after further dissection on the dorsal side of the rabbit. Once the sciatic nerve is identified, the pelvic nerve was easily located. The term pelvic nerve is loosely applied; anatomy books on the subject fail to identify the nerves in sufficient detail. However, stimulation of the nerve causes an increase in vaginal and clitoral blood flow, and innervation of the pelvic region. The pelvic nerve was freed away from surrounding tissue and a Harvard bipolar stimulating electrode was placed around the nerve. The nerve was slightly lifted to give some tension, then the electrode was secured in position. Approximately 1 ml of light paraffin oil was placed around the nerve and electrode. This acts as a protective lubricant to the nerve and prevents blood contamination of the electrode. The electrode was connected to a Grass S88 Stimulator. The pelvic nerve was stimulated using the following parameters:-5V, pulse width 0.5 ms, duration of stimulus 10 seconds and a frequency range of 2 to 16 Hz. Reproducible responses were obtained when the nerve was stimulated every 15-20 minutes. A frequency response curve was determined at the start of each experiment in order to determine the optimum frequency to use as a sub-maximal response, normally 4 Hz. A ventral midline incision was made, at the caudal end of the pubis, to expose the pubic area. Connective tissue was removed to expose the tunica of the clitoris, ensuring that the wall was free from small blood vessels. The external vaginal wall was also exposed by removing any connective tissue. One laser Doppler flow probe was inserted 3 cm into the vagina, so that half the probe shaft was still visible. A second probe was positioned so that it lay just above the external clitoral wall. The position of these probes was then adjusted until a signal was obtained. A second probe was placed just above the surface of a blood vessel on the external vaginal wall. […]

human GRP receptor (BB2) = target: T1, human GRP receptor (BB2) (Homo sapiens, UniProt P30550); experiment: BB2 binding assay ([125I][Tyr4]bombesin displacement, CHO-K1 membranes); details: read-out: hBB2 Ki
T1 construct: expressed in transfected cells; membranes prepared from the cells
T1 sequence (P30550 whole entry): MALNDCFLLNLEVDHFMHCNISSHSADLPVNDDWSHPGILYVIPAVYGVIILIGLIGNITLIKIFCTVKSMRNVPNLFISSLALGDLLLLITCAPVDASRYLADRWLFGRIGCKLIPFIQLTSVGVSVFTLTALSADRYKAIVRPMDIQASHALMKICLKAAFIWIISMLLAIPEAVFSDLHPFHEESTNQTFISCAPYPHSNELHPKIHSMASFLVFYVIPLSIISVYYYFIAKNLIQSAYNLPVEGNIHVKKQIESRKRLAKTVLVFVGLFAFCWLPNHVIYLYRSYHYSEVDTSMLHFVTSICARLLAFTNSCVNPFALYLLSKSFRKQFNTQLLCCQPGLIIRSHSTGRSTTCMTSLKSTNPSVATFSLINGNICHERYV
In short: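 Competition against <0.1 nM [125I][Tyr4]bombesin, 60 min for the NMB receptor and 90 min for the GRP receptor, using homogenised membranes of human-receptor-expressing CHO-K1 cells in pH 7.4 Tris buffer. Bound label was filtered and gamma-counted, with 1 μM bombesin as nonspecific. Ki values came from IC50 via Cheng-Prusoff.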

SMILES | penile intracavernosal pressure / erection [1] | penile intracavernosal pressure / erection ([1]; listed as compound 3) | time after sc dosing at which potentiation was significant [2] [min] | time potentiation remained elevated [2] | basal genital blood flow in the absence of PNS [2] | pelvic-nerve stimulated (PNS) increases in genital (vaginal and clitoral) blood flow [2] | Ki (human GRP receptor (BB2)) [nM]
C[C@@](Cc1c[nH]c2ccccc12)(NC(=O)Nc1ccc([N+](=O)[O-])cc1)C(=O)NCC1(c2ccc(N)cc2)CCCCC1 [Compound 3, (2S)-N-{[1-(4-aminophenyl)cyclohexyl]methyl}-3-(1H-indol-3-yl)-2-methyl-2-{[(4-nitroanilino)-carbonyl]amino}propanamide] | pro-erectile | significant increases in intracavernosal pressure | 45 | circa 1 hr | no effect on basal genital blood flow | potent enhancer of pelvic-nerve stimulated (PNS) increases in vaginal and clitoral blood flow | 46
COc1ccc(C2(CNC(=O)[C@](C)(Cc3c[nH]c4ccccc34)NC(=O)Nc3ccc([N+](=O)[O-])cc3)CCCCC2)nc1 [Compound (1), (S) 3-(1H-Indol-3-yl)-N-[1-(5-methoxy-pyridin-2-yl)-cyclohexyl-methyl]-2-methyl-2-[3-(4-nitro-phenyl)-ureido]-propionamide] | pro-erectile; also recorded: significant increases in intracavernosal pressure | – | – | – | no effect on basal genital blood flow | potent enhancer of pelvic-nerve stimulated (PNS) increases in genital blood flow | –
